In patent US20140323501A1, “AMINO-PROPYLENE-GLYCOL DERIVATIVES, PREPARATION METHOD AND PHARMACEUTICAL COMPOSITION AND USE THEREOF” (INSTITUTE OF MATERIA MEDICA, CHINESE ACADEMY OF MEDICAL …, priority 2011, published 2014):

Legend:
[1] = test system: SD rat peripheral blood lymphocyte counts; assay: Effect of S1P1 receptor agonists on rat vein (peripheral) blood lymphocyte counts; assay type: in vivo; settings: for LYM 0 h: before administration; for Δ %: largest decrease of lymphocyte count vs 0 h
Experimental: 10 mg of drugs were measured and placed in a mortar. After 4 mL of 5‰ CMC-Na were added, homogenous suspension was prepared in the mortar (one drop of twain-80 was added to help dissolving). Dosage: 10 mg/Kg, dose volume: 0.4 mL/100 g, intragastric administration.
Every medicated group was assigned three rats.
After the experimental animals stable in the clean environment for 24 h, 10 μL of blood was withdrawn via tail vein and diluted into 2 mL of diluents quickly. […] Then the prepared drugs were administered intragastrically to the animals. […] The animals were killed after 24 h.

SD rat heart rate = assay: Effect of S1P1 receptor agonists on rat heart rate; assay type: in vivo; settings: for HR delta %: (lowest heart rate postdose − pre-administration)/pre-administration; for heart rate pre-administration: before administration
Experimental: 2.1 Experimental animals: SD rats, purchased from Weitonglihua. Weight: 200-240 g, male. Every test group was assigned three rats. The normal rats were set as control group and determined as the medicated group parallelly for three times. The positive drug FTY720 was repeated three times.
2.2 Apparatus: Intelligent non-invasive blood pressure measurement meter (Softron, Japan).
(1) Preparation: The drug was dissolved to reach a concentration of 2.5 mg/mL.
(1) Determination of rat heart rate before administration. Repeat for three times.
(2) Administration: intragastric administration after SD rats weighed.
(3) Determination of rat heart rate at the time 0.5 h, 1 h, 3 h, 6 h, 8 h and 24 h after administration. Repeat for three times
Every drug was tested with three SD rats parallelly. […] Delta % of heart rate=(the lowest heart rate postdose−the heart rate pre-administration)/the heart rate pre-administration, reflects the influence of drugs on rat heart rate.

[2] = Table 6, intragastric, listed as FTY720-1
[3] = Table 6, intragastric, listed as FTY720-2

Structure (SMILES): CCCCCCCCc1ccc(CCC(N)(CO)CO)cc1 [FTY720, reference compound]
- LYM 0 h ([1]; Table 1, 10 mg/Kg intragastric): 4.20 ± 0.57 × 10^9/L
- LYM 1 h ([1]; Table 1, 10 mg/Kg intragastric, 1 h after administration): 4.75 ± 2.76 × 10^9/L
- LYM 2 h ([1]; Table 1, 10 mg/Kg intragastric, 2 h after administration): 2.45 ± 0.07 × 10^9/L
- LYM 4 h ([1]; Table 1, 10 mg/Kg intragastric, 4 h after administration): 2.75 ± 0.78 × 10^9/L
- LYM 8 h ([1]; Table 1, 10 mg/Kg intragastric, 8 h after administration): 1.80 ± 0.14 × 10^9/L
- LYM 12 h ([1]; Table 1, 10 mg/Kg intragastric, 12 h after administration): 1.00 ± 0.00 × 10^9/L
- LYM 24 h ([1]; Table 1, 10 mg/Kg intragastric, 24 h after administration): 2.60 ± 0.42 × 10^9/L
- compared with 0 h (%) 1 h ([1]; Table 1, lymphocyte count change vs 0 h, 10 mg/Kg intragastric, 1 h): −13.10%
- compared with 0 h (%) 2 h ([1]; Table 1, lymphocyte count change vs 0 h, 10 mg/Kg intragastric, 2 h): 41.67%
- compared with 0 h (%) 4 h ([1]; Table 1, lymphocyte count change vs 0 h, 10 mg/Kg intragastric, 4 h): 34.52%
- compared with 0 h (%) 8 h ([1]; Table 1, lymphocyte count change vs 0 h, 10 mg/Kg intragastric, 8 h): 57.14%
- compared with 0 h (%) 12 h ([1]; Table 1, lymphocyte count change vs 0 h, 10 mg/Kg intragastric, 12 h): 76.19%
- compared with 0 h (%) 24 h ([1]; Table 1, lymphocyte count change vs 0 h, 10 mg/Kg intragastric, 24 h): 38.10%
- LYM 0 h ([1]; Table 3, 10 mg/Kg intragastric): 4.97 ± 1.06 ×10^9/L
- LYM 1 h ([1]; Table 3, 10 mg/Kg intragastric, 1 h): 3.18 ± 0.52 ×10^9/L
- LYM 2 h ([1]; Table 3, 10 mg/Kg intragastric, 2 h): 3.15 ± 0.71 ×10^9/L
- LYM 4 h ([1]; Table 3, 10 mg/Kg intragastric, 4 h): 3.44 ± 1.30 ×10^9/L
- LYM 6 h ([1]; Table 3, 10 mg/Kg intragastric, 6 h): 2.78 ± 0.84 ×10^9/L
- LYM 8 h ([1]; Table 3, 10 mg/Kg intragastric, 8 h): 2.32 ± 0.90 ×10^9/L
- LYM 12 h ([1]; Table 3, 10 mg/Kg intragastric, 12 h): 2.33 ± 0.75 ×10^9/L
- LYM 23 h ([1]; Table 3, 10 mg/Kg intragastric, 23 h): 1.78 ± 0.29 ×10^9/L
- Δ % ([1]; Table 3, 10 mg/Kg intragastric): 64.09%
- LYM 0 h ([1]; Table 5, 10 mg/Kg intragastric): 3.80 ± 0.14 × 10^9/L
- LYM 1 h ([1]; Table 5, 10 mg/Kg intragastric, 1 h): 2.30 ± 0.85 × 10^9/L
- LYM 4 h ([1]; Table 5, 10 mg/Kg intragastric, 4 h): 1.20 ± 0.36 × 10^9/L
- LYM 8 h ([1]; Table 5, 10 mg/Kg intragastric, 8 h): 1.07 ± 0.50 × 10^9/L
- LYM 12 h ([1]; Table 5, 10 mg/Kg intragastric, 12 h): 1.27 ± 0.23 × 10^9/L
- LYM 24 h ([1]; Table 5, 10 mg/Kg intragastric, 24 h): 1.60 ± 0.57 × 10^9/L
- Δ % ([1]; Table 5): 71.93%
- LYM 0 h ([1]; Table 7, 10 mg/Kg intragastric): 3.80 ± 0.14 × 10^9/L
- LYM 1 h ([1]; Table 7, 10 mg/Kg intragastric, 1 h): 2.30 ± 0.85 × 10^9/L
- LYM 4 h ([1]; Table 7, 10 mg/Kg intragastric, 4 h): 1.20 ± 0.36 × 10^9/L
- LYM 8 h ([1]; Table 7, 10 mg/Kg intragastric, 8 h): 1.07 ± 0.50 × 10^9/L
- LYM 12 h ([1]; Table 7, 10 mg/Kg intragastric, 12 h): 1.27 ± 0.23 × 10^9/L
- LYM 24 h ([1]; Table 7, 10 mg/Kg intragastric, 24 h): 1.60 ± 0.57 × 10^9/L
- Δ % ([1]; Table 7): 71.93%
- LYM 0 h ([1]; Table 8, 10 mg/Kg intragastric): 4.20 ± 0.57 × 10^9/L
- LYM 1 h ([1]; Table 8, 10 mg/Kg intragastric, 1 h): 4.75 ± 2.76 × 10^9/L
- LYM 4 h ([1]; Table 8, 10 mg/Kg intragastric, 4 h): 2.75 ± 0.78 × 10^9/L
- LYM 8 h ([1]; Table 8, 10 mg/Kg intragastric, 8 h): 1.80 ± 0.14 × 10^9/L
- LYM 12 h ([1]; Table 8, 10 mg/Kg intragastric, 12 h): 1.00 ± 0.00 × 10^9/L
- LYM 24 h ([1]; Table 8, 10 mg/Kg intragastric, 24 h): 2.60 ± 0.42 × 10^9/L
- Δ % ([1]; Table 8): 76.19%
- HR delta % (SD rat heart rate; Table 2, listed as FTY720-1): 19.60%
- HR delta % (SD rat heart rate; Table 2, listed as FTY720-2): 17.80%
- HR delta % (SD rat heart rate; Table 2, listed as FTY720-3): 14.00%
- HR delta % (SD rat heart rate; Table 2, listed as average of FTY720): 16.6%
- heart rate 0.5 h (SD rat heart rate; Table 2, intragastric, 0.5 h after administration, listed as FTY720-1): 392.33
- heart rate 0.5 h (SD rat heart rate; Table 2, intragastric, 0.5 h after administration, listed as FTY720-2): 361.28
- heart rate 0.5 h (SD rat heart rate; Table 2, intragastric, 0.5 h after administration, listed as FTY720-3): 379.67
- heart rate 0.5 h (SD rat heart rate; Table 2, intragastric, 0.5 h after administration, listed as average of FTY720): 377.76
- heart rate 1 h (SD rat heart rate; Table 2, intragastric, 1 h after administration, listed as FTY720-1): 361.00
- heart rate 1 h (SD rat heart rate; Table 2, intragastric, 1 h after administration, listed as FTY720-2): 331.71
- heart rate 1 h (SD rat heart rate; Table 2, intragastric, 1 h after administration, listed as FTY720-3): 370.62
- heart rate 1 h (SD rat heart rate; Table 2, intragastric, 1 h after administration, listed as average of FTY720): 354.44
- heart rate 3 h (SD rat heart rate; Table 2, intragastric, 3 h after administration, listed as FTY720-1): 318.50
- heart rate 3 h (SD rat heart rate; Table 2, intragastric, 3 h after administration, listed as FTY720-2): 329.33
- heart rate 3 h (SD rat heart rate; Table 2, intragastric, 3 h after administration, listed as FTY720-3): 355.83
- heart rate 3 h (SD rat heart rate; Table 2, intragastric, 3 h after administration, listed as average of FTY720): 334.55
- heart rate 6 h (SD rat heart rate; Table 2, intragastric, 6 h after administration, listed as FTY720-1): 325.78
- heart rate 6 h (SD rat heart rate; Table 2, intragastric, 6 h after administration, listed as FTY720-2): 327.82
- heart rate 6 h (SD rat heart rate; Table 2, intragastric, 6 h after administration, listed as FTY720-3): 342.00
- heart rate 6 h (SD rat heart rate; Table 2, intragastric, 6 h after administration, listed as average of FTY720): 331.86
- heart rate 8 h (SD rat heart rate; Table 2, intragastric, 8 h after administration, listed as FTY720-1): 341.00
- heart rate 8 h (SD rat heart rate; Table 2, intragastric, 8 h after administration, listed as FTY720-2): 338.78
- heart rate 8 h (SD rat heart rate; Table 2, intragastric, 8 h after administration, listed as FTY720-3): 342.50
- heart rate 8 h (SD rat heart rate; Table 2, intragastric, 8 h after administration, listed as average of FTY720): 340.76
- heart rate 24 h (SD rat heart rate; Table 2, intragastric, 24 h after administration, listed as FTY720-1): 329.67
- heart rate 24 h (SD rat heart rate; Table 2, intragastric, 24 h after administration, listed as FTY720-2): 365.07
- heart rate 24 h (SD rat heart rate; Table 2, intragastric, 24 h after administration, listed as FTY720-3): 363.44
- heart rate 24 h (SD rat heart rate; Table 2, intragastric, 24 h after administration, listed as average of FTY720): 352.72
- heart rate pre-administration (SD rat heart rate; Table 2, intragastric, listed as FTY720-1): 396.28
- heart rate pre-administration (SD rat heart rate; Table 2, intragastric, listed as FTY720-2): 398.60
- heart rate pre-administration (SD rat heart rate; Table 2, intragastric, listed as FTY720-3): 398.22
- heart rate pre-administration (SD rat heart rate; Table 2, intragastric, listed as average of FTY720): 397.70
- Δ % = the percentage of change of rat heart rate before and after administration (SD rat heart rate; Table 4): 26.16%
- heart rate 0.5 h (SD rat heart rate; Table 4, intragastric, 0.5 h): 356.33
- heart rate 1 h (SD rat heart rate; Table 4, intragastric, 1 h): 319.22
- heart rate 3 h (SD rat heart rate; Table 4, intragastric, 3 h): 288.58
- heart rate 6 h (SD rat heart rate; Table 4, intragastric, 6 h): 280.13
- heart rate 8 h (SD rat heart rate; Table 4, intragastric, 8 h): 308.08
- heart rate 24 h (SD rat heart rate; Table 4, intragastric, 24 h): 323.25
- heart rate 0 (SD rat heart rate; Table 4, intragastric, time 0, before administration): 379.42
- HR delta % (SD rat heart rate; Table 6, listed as FTY720-1): 21.86%
- HR delta % (SD rat heart rate; Table 6, listed as FTY720-2): 22.61%
- heart rate 1 h (SD rat heart rate; Table 6, intragastric, 1 h, listed as FTY720-1): 389.62 ± 30.01
- heart rate 1 h (SD rat heart rate; Table 6, intragastric, 1 h, listed as FTY720-2): 389.62 ± 23.39
- heart rate 4 h (SD rat heart rate; [2]): 340.17 ± 32.04
- heart rate 4 h (SD rat heart rate; [3]): 354.27 ± 15.79
- heart rate 8 h (SD rat heart rate; Table 6, intragastric, 8 h, listed as FTY720-1): 361.69 ± 27.99
- heart rate 8 h (SD rat heart rate; Table 6, intragastric, 8 h, listed as FTY720-2): 346.91 ± 26.41
- heart rate 12 h (SD rat heart rate; [2]): 360.62 ± 18.19
- heart rate 12 h (SD rat heart rate; [3]): 335.67 ± 16.30
- heart rate 24 h (SD rat heart rate; Table 6, intragastric, 24 h, listed as FTY720-1): 410.31 ± 32.13
- heart rate 24 h (SD rat heart rate; Table 6, intragastric, 24 h, listed as FTY720-2): 370.18 ± 26.82
- heart rate pre-administration (SD rat heart rate; [2]): 435.36 ± 47.99
- heart rate pre-administration (SD rat heart rate; [3]): 433.75 ± 30.84
- HR delta % (SD rat heart rate; Table 9): 17.80%
- heart rate 0.5 h (SD rat heart rate; Table 9, intragastric, 0.5 h): 361.28 ± 22.91
- heart rate 1 h (SD rat heart rate; Table 9, intragastric, 1 h): 331.71 ± 12.26
- heart rate 3 h (SD rat heart rate; Table 9, intragastric, 3 h): 329.33 ± 11.32
- heart rate 6 h (SD rat heart rate; Table 9, intragastric, 6 h): 327.82 ± 15.60
- heart rate 8 h (SD rat heart rate; Table 9, intragastric, 8 h): 338.78 ± 12.07
- heart rate 24 h (SD rat heart rate; Table 9, intragastric, 24 h): 365.07 ± 19.47
- heart rate pre-administration (SD rat heart rate; Table 9, intragastric): 398.60 ± 33.20
